{"source": "patent US12329736B2", "about": "“Carboxylate ligand modified ferric iron hydroxide compositions for use in the treatment or prevention of iron deficiency associated with liver diseases” (Nemysis Ltd., priority 2020, dated 2025)", "conditions": "Wistar rats", "note": "Entries after “also recorded” stand apart in the source; their conditions may differ.", "from_the_text": "5-6 week old Wistar rats (n=72; 36 female and 36 male) were housed in harmonious social groups (2-3 animals per cage and sex) in a light- and temperature-controlled room with ad libitum access to standard pellet diet and water. Rats were acclimatised for 7 days for male rats and 14 days for female rats, prior to treatment commencement.\nAnimals were gavaged for 28 days (n=36; 18 female and 18 male) or 90 days (n=36; 18 female and 18 male). Following necropsy, livers were harvested, flash frozen in liquid nitrogen and stored at −80° C. until further analysis.\nLivers were thawed at room temperature, and a sample of approximately 800 mg was cut out, cleaned from any fat and weighed on a balance accurate to 0.0001 g. Weighed samples were digested in concentrated HNO3 (Nitric acid ≥65%, 84380-2.5L-M, Merck) and H2O2 (Hydrogen peroxide solution, 16911-1L-F, Sigma-Aldrich) at a 5:1 ratio. Samples were digested at room temperature for 24 h and if necessary at 40° C. for another 24 h to allow complete digestion. Following complete digestion samples were diluted 1:4 in UHP water to achieve a final HNO3 concentration of 6-8%. Total elemental analysis for iron was carried out on a Jobin Yvon Horiba Ultima 2C ICP-OES (Instrument SA, Longjumeau, France), equipped with a concentric nebulizer and cyclonic spray chamber. Analysis was by peak profile with a window size of 0.025 nm with 21 increments per profile and an integration time of 0.5 seconds per increment. Analytical line was 259.940 nm. Samples and blanks were analysed with iron standards (0-20 mg/L) prepared in 6-8% HNO3, using a 1000 mg/L Fe ICP solution. Pooled-sample standards (0-20 mg/L) were prepared, using a pool of all final digests, to allow detection of possible matrix effects. Each sample/blank/standard was analysed in triplicates and the average value used for the calculations. The sample induction system (sample tubing, nebuliser and spray chamber) was thoroughly flushed between samples, blanks and standards.\nStatistical analyses were performed in GraphPad Prism 6. One-way ANOVA, followed by Tukey's multiple comparison's test, was used to assess the treatment effect, irrespective of the length of treatment. Two-way ANOVA was used to assess the effects of time (i.e. treatment length), treatment and the time x treatment interactions, followed by Bonferroni's multiple comparisons test. Two-way ANOVA was also used to assess the effect of sex, treatment and the sex x treatment interaction. P values <0.05 were considered significant in all analyses. Data are presented as means±SDs."}
{"molecule": "O=S(=O)([O-])[O-].[Fe+2]", "note": "[FeSO4, ferrous sulphate]", "values": [{"measurement": "Accumulation of liver iron over time with repeated oral dosing", "setting": "28 days versus 90 days of oral administration, FIG. 1B", "result": "iron seems to accumulate over time; also recorded: does accumulate"}, {"measurement": "Total iron content in liver samples versus vehicle control group", "setting": "daily oral gavage 28 or 90 days, IHAT 28.5 mg iron/kg, FeSO4 20.00 mg iron/kg, FIG. 1A", "result": "significantly increased; also recorded: significant difference"}]}
